# Results published in patent publication US20120071499A1, “Substituted Spiro[3H-Indole-3,6'(5'H)-[1H]Pyrrolo[1,2c]Imidazole-1',2(1H,2'H)-diones” (priority 2010, published 2012).
# Target: interaction between p53 and MDM2 proteins (Homo sapiens, UniProt Q00987)
# Assay: HTRF assay of inhibition of p53-MDM2 interaction (GST-MDM2 / biotinylated p53 peptide)
# Method: The ability of the compounds to inhibit the interaction between p53 and MDM2 proteins was measured by an HTRF (homogeneous time-resolved fluorescence) assay in which recombinant GST-tagged MDM2 binds to a peptide that resembles the MDM2-interacting region of p53. Binding of GST-MDM2 protein and p53-peptide (biotinylated on its N-terminal end) is registered by the FRET (fluorescence resonance energy transfer) between Europium (Eu)-labeled anti-GST antibody and streptavidin-conjugated Allophycocyanin (APC).
# Test is performed in black flat-bottom 384-well plates (Costar) in a total volume of 40 uL containing: 90 nM biotinylate peptide, 160 ng/ml GST-MDM2, 20 nM streptavidin-APC (PerkinElmerWallac), 2 nM Eu-labeled anti-GST-antibody (PerkinElmerWallac), 0.2% bovine serum albumin (BSA), 1 mM dithiothreitol (DTT) and 20 mM Tris-borate saline (TBS) buffer as follows: Add 10 uL of GST-MDM2 (640 ng/ml working solution) in reaction buffer to each well. […] Incubate at 37° C. for 1 h. Add 20 uL streptavidin-APC and Eu-anti-GST antibody mixture (6 nM Eu-anti-GST and 60 nM streptavidin-APC working solution) in TBS buffer with 0.2% BSA, shake at room temperature for 30 minutes and read using a TRF-capable plate reader at
# Chain of interaction between p53 and MDM2 proteins (Q00987 whole entry): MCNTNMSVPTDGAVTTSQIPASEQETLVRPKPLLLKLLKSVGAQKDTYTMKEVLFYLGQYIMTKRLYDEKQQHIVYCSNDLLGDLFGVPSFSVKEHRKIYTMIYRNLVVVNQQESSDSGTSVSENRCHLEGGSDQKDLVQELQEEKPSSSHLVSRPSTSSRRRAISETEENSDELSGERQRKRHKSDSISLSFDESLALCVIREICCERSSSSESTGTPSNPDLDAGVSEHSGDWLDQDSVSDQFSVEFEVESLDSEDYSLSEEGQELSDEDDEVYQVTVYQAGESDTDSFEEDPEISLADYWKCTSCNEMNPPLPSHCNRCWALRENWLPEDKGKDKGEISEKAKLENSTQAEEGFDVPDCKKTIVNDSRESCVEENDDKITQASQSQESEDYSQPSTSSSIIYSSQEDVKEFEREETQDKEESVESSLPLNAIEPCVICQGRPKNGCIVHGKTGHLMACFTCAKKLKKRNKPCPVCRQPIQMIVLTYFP
row,SMILES,IC50 [nM]
1,"COc1cc(N2CN3[C@@H](CC(C)(C)C)[C@@]4(C(=O)N(CO)c5cc(Cl)ccc54)[C@@H](c4cccc(Cl)c4F)[C@@H]3C2=O)ccc1C(=O)O (racemic) [Example 16, Rac 4-((3R,5′S,7′S,7a′R)-6-chloro-7′-(3-chloro-2-fluorophenyl)-1-(hydroxymethyl)-5′-neopentyl-1′,2-dioxo-7′,7a′-dihydrospiro[indoline-3,6′-pyrrolo[1,2-c]imidazole]-2′(1′H,3′H,5′H)-yl)-2-methoxybenzoic acid]",25
2,"COc1cc(C(=O)O)ccc1N1CN2[C@@H](CC(C)(C)C)[C@@]3(C(=O)Nc4cc(Cl)ccc43)[C@@H](c3cccc(Cl)c3F)[C@@H]2C1=O [Example 21, chiral 4-((3S,5′R,7′R,7a′S)-6-chloro-7′-(3-chloro-2-fluorophenyl)-5′-neopentyl-1′,2-dioxo-7′,7a′-dihydrospiro[indoline-3,6′-pyrrolo[1,2-c]imidazole]-2′(1′H,3′H,5′H)-yl)-3-methoxybenzoic acid]",6
3,"CC(C)(C)C[C@H]1N2CN(c3ccc(C(=O)O)cc3)C(=O)[C@@H]2[C@@H](c2cccc(Cl)c2F)[C@@]12C(=O)Nc1cc(Cl)ccc12 [Example 30, chiral 4-((3S,5′R,7′R,7a′S)-6-chloro-7′-(3-chloro-2-fluorophenyl)-5′-neopentyl-1′,2-dioxo-7′,7a′-dihydrospiro[indoline-3,6′-pyrrolo[1,2-c]imidazole]-2′(1′H,3′H,5′H)-yl)benzoic acid]",128
4,COc1cc(N2CN3[C@@H](CC(C)(C)C)[C@@]4(C(=O)N(CO)c5cc(Cl)ccc54)[C@@H](c4cccc(Cl)c4F)[C@@H]3C2=O)ccc1C(N)=O [Example 31],12
5,"CC(C)(C)CC1N2CN(CC(=O)O)C(=O)C2C(c2cccc(Cl)c2F)C12C(=O)Nc1cc(Cl)ccc12 (racemic) [Example 37, rac of 2-((3R,5′S,7′S,7a′R)-6-chloro-7′-(3-chloro-2-fluorophenyl)-5′-neopentyl-1′,2-dioxo-7′,7a′-dihydrospiro[indoline-3,6′-pyrrolo[1,2-c]imidazole]-2′(1′H,3′H,5′H)-yl)acetic acid]",13
6,"COc1cc(N2CN3[C@@H](CC(C)(C)C)[C@@]4(C(=O)Nc5cc(Cl)ccc54)[C@@H](c4cccc(Cl)c4F)[C@@H]3C2=O)ccc1C(N)=O (single isomer, unassigned) [Example 25]",4
7,"COc1cc(C(N)=O)ccc1N1CN2[C@@H](CC(C)(C)C)[C@@]3(C(=O)Nc4cc(Cl)ccc43)[C@@H](c3cccc(Cl)c3F)[C@@H]2C1=O [Example 22, chiral 4-((3R,5′S,7′S,7a′R)-6-chloro-7′-(3-chloro-2-fluorophenyl)-5′-neopentyl-1′,2-dioxo-7′,7a′-dihydrospiro[indoline-3,6′-pyrrolo[1,2-c]imidazole]-2′(1′H,3′H,5′H)-yl)-3-methoxybenzamide]",5
8,"COc1cc(N2CN3[C@@H](CC(C)(C)C)[C@@]4(C(=O)Nc5cc(Cl)ccc54)[C@@H](c4cccc(Cl)c4F)[C@@H]3C2=O)ccc1C(=O)O (racemic) [Example 18, Rac 4-((3R,5′S,7′S,7a′R)-6-chloro-7′-(3-chloro-2-fluorophenyl)-5′-neopentyl-1′,2-dioxo-7′,7a′-dihydrospiro[indoline-3,6′-pyrrolo[1,2-c]imidazole]-2′(1′H,3′H,5′H)-yl) 2-methoxybenzoic acid]",7
